Test results taken from PMC6811792, “The Binding Affinity of Small Molecules with Yam Tyrosinase (Catechol Oxidase): A Biophysical Study” (Biochemistry Research International, 2019).
Read-outs that look alike come from different tables or passages of the source.

How the values were obtained:
yam tyrosinase [1] = target: yam tyrosinase; parameters: method as in PMID 29246874; details: SPR, two-state model, substrate; cited from earlier work
yam tyrosinase [2] = assay: SPR interaction kinetics of single analytes with immobilized yam tyrosinase, two-state model; assay type: binding, Amorphophallus paeoniifolius
Protocol: SPR interaction studies were carried out using a Biocore X100 optical biosensor (GE Healthcare Life Sciences, Uppsala, Sweden). All the SPR measurements were performed in phosphate buffer saline (PBS; 10.1 mM Na2PO4, 1.8 mM KH2PO4, 137 mM NaCl, 2.7 mM KCl, pH 7.4, 0.005% P20). Initially, working dilutions were prepared from the analyte stock solution in PBS only and then allowed to flow through the sensor surface. Biocore control software version 2.2 was used for data collection. Refractive index changes as a function of time under constant flow condition are monitored by the system, and accordingly, experiments were performed. […] There is an inline subtraction of reference surface during the run. This change is usually reported in terms of response units (RUs). The surface of the chip is washed with PBS (running buffer) between each concentration.
The method of amine coupling was employed for the immobilization of yam tyrosinase which was dissolved (50 μg/mL) in 0.1 M sodium acetate buffer with pH value 4.5 as per the pH scouting study in [15]. Yam tyrosinase was immobilized on sensor chip series S CM5. Flow cell on the chip surface was activated for 7 min using a 1 : 1 mixture of 100 mM […] (EDC) and 100 mM N-hydroxysuccinimide (NHS) (both dissolved in water), and subsequently, tyrosinase was injected for 7 min, followed by injection of 1 M ethanolamine, pH 8.5 to block nonreactive sites. For this study, flow cell 3 was blank immobilized (without protein) as reference.
Crocin and kojic acid are natural tyrosinase inhibitors, whereas hydroquinone is a synthetic inhibitor. The grouping of inhibitors was simply based on the efficiency, size, solubility, and origin of inhibitors. […] PBS was used as the running buffer. The flow rate was constant (45 μL/min) throughout the experiment. The contact time (association time) and dissociation time were fixed to 120 s. Experiments were performed with different concentrations of individual inhibitors based on their solubilities: crocin (0.156–2.5 mM), hydroquinone (0.625–10 mM), kojic acid ([…]), and L-DOPA (5–80 mM). These concentrations were optimized by repeating the SPR experiments several times to achieve appropriate binding interactions. […] Regeneration was carried out with 10 mM glycine pH 2.5 for 30 s. Binding analysis was evaluated using the heterogeneous analyte kinetics model. After each cycle of regeneration, the activity of the enzyme was checked by injecting a single concentration of L-DOPA, and RU response was observed. The data analyses were done with Biacore X100 evaluation software version 2.2, and data were fit to two-state binding and/or heterogeneous analyte binding.
Flow rate was maintained at 45 μL/min. Contact time and dissociation time were kept at 120 s and 200 s. Regeneration was carried out using 10 mM glycine HCl at pH 2.5 for 30 s and at 30 μL/min. The data analysis was performed with Biacore X100 evaluation software version 2.0.1, and data were fit to two states. Each concentration represents sensorgram in the increasing order of curves. Crocin with concentrations (0.156, 0.312, 0.625, 1.25, and 2.5 mM) was injected over the enzyme surface (a). Kojic acid with concentrations (0.0156, 0.0312, 0.0625, 0.125, and 0.25 mM) was injected over the enzyme surface (b). Hydroquinone with concentrations (0.625, 1.25, 2.5, 5.0, and 10 mM) was injected over enzyme surface (c). L-DOPA with concentrations (5, 10, 20, 40 and 80 mM) was injected over the enzyme surface (d).

yam tyrosinase [3] = assay: Diphenolase activity assay (dopachrome at 475 nm, L-DOPA substrate); assay type: biochemical, Amorphophallus paeoniifolius; details: 2 mM L-DOPA, pH 7.0, 30°C
Protocol: The reaction mixture (3 mL) contained 2 mM of L-DOPA in 50 mM potassium phosphate buffer (pH 7.0); a portion of 100 μL of the enzyme was used for the activity assay. The reaction was carried out at a constant temperature of 30°C using a Shimadzu UV visible spectrophotometer. IC50 values were calculated as per the formula reported earlier.

Structure (SMILES)	Kd (yam tyrosinase [1]) [µM]	k a1 (yam tyrosinase [1])	k a2 (yam tyrosinase [1])	k d1 (yam tyrosinase [1]) [s⁻¹]	k d2 (yam tyrosinase [1]) [s⁻¹]	k a1 (yam tyrosinase [2]; PBS pH 7.4) [M⁻¹ s⁻¹]	k a2 (yam tyrosinase [2]; PBS pH 7.4) [s⁻¹]	k d1 (yam tyrosinase [2]; PBS pH 7.4) [s⁻¹]	k d2 (yam tyrosinase [2]; PBS pH 7.4) [s⁻¹]	IC50 (yam tyrosinase [3]) [µM]	Kd (yam tyrosinase [2]; PBS pH 7.4) [µM]	Kd (yam tyrosinase [2]; PBS pH 7.4, listed as crocin) [µM]
N[C@@H](Cc1ccc(O)c(O)c1)C(=O)O [L-DOPA, L-3 dihydroxyphenylalanine]	1.35	9.54 × 10^4 1/ms	0.001544 ± 1.50 × 10^4 1/s	0.5089 ± 0.085	0.000523 ± 8.4e-05	–	–	–	–	–	–	–
Oc1ccc(O)cc1 [Hydroquinone, hydroquinone]	–	–	–	–	–	2.89 ± 0.13	0.001569 ± 3.5e-05	0.9166 ± 0.02	0.005185 ± 0.00013	1500	–	–
CC(/C=C/C=C(\C)C(=O)O[C@@H]1O[C@H](CO[C@@H]2O[C@H](CO)[C@@H](O)[C@H](O)[C@H]2O)[C@@H](O)[C@H](O)[C@H]1O)=C\C=C\C=C(C)\C=C\C=C(/C)C(=O)O[C@@H]1O[C@H](CO[C@@H]2O[C@H](CO)[C@@H](O)[C@H](O)[C@H]2O)[C@@H](O)[C@H](O)[C@H]1O [Crocin, crocin]	–	–	–	–	–	224 ± 11	0.003525 ± 9.7e-05	0.5772 ± 0.025	0.006429 ± 0.00014	1000	1660	1700
O=c1cc(CO)occ1O [Kojic acid]	–	–	–	–	–	334 ± 16	0.00539 ± 7.8e-05	0.03182 ± 0.0013	–	0.1	6.39	–
